# Earlier results as cited in patent US20040224076A1, “Dietetic composition in the form of a salt substitute for table salt” (priority 1998, published 2004).
# Settings: oral supplementation, meta-analysis of 33 studies
compound,measurement,value
[K+] [potassium],reduction for diastolic pressure,1.97 mm Hg
same,reduction for systolic pressure,3.11 mm Hg
